Measured values published in US8063067B2, “Hexenoic acid derivatives, processes for the preparation thereof, pharmaceutical compositions comprising them, and therapeutic applications thereof” (Merck Patent GmbH, priority 2004, dated 2011).
Marks after values point to notes of the source that are not given here.

Legend:
[1] = molecular target: T1, chimeric protein PPARγ-Gal4 (Homo sapiens, UniProt P37231); experiment: PPARγ-Gal4 chimera luciferase reporter transactivation in co-transfected CV-1 cells; assay type: cell-based; details: CV-1 cells (monkey kidney cells), 18 hours contact, fold relative to control cells without product
T1 construct: expressed in transfected cells; host or cells: CV-1 cells (monkey kidney cells)
T1 sequence (P37231 238-503 limits assumed): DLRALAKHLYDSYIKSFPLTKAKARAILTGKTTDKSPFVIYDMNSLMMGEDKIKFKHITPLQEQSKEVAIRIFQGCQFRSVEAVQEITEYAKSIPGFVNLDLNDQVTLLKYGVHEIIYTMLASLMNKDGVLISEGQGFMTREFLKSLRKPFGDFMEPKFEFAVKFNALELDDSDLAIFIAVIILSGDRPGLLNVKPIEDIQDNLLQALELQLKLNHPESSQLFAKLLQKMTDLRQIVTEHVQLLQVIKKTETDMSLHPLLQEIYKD
Protocol: (§1) The measurement of the PPAR activation was performed according to a technique described by Lehmann et al. (J. Biol. Chem., 270, (1995), 12953-12956).
(§2) CV-1 cells (monkey kidney cells) are co-transfected with an expression vector for the chimeric proteins PPARα-Gal4 or PPARγ-Gal4 and with a “reporter” plasmid that allows the expression of the luciferase gene placed under the control of a promoter comprising Gal4 response elements.
(§3) The cells are plated into 96-well microplates and co-transfected using a commercial reagent with the reporter plasmid (pG5-tk-pGL3) and the expression vector for the chimeric protein (PPARα-Gal4 or PPARγ-Gal4). After incubating for 4 hours, whole culture medium (comprising 10% foetal calf serum) is added to the wells. After 24 hours, the medium is removed and replaced with whole medium comprising the test products (50 μM, 25 μM and 12.5 μM final). The products are left in contact with the cells for 18 hours. The cells are then lysed and the luciferase activity is measured using a luminometer. A PPAR activation factor can then be calculated by means of activation of the expression of the reporter gene induced by the product (relative to the control cells that have not received any product).

[2] = molecular target: T2, chimeric protein PPARα-Gal4 (Homo sapiens, UniProt Q07869); experiment: PPARα-Gal4 chimera luciferase reporter transactivation in co-transfected CV-1 cells; assay type: cell-based; details: CV-1 cells (monkey kidney cells), 18 hours contact, fold relative to control cells without product
T2 construct: expressed in transfected cells; host or cells: CV-1 cells (monkey kidney cells)
T2 sequence (Q07869 239-466 limits assumed): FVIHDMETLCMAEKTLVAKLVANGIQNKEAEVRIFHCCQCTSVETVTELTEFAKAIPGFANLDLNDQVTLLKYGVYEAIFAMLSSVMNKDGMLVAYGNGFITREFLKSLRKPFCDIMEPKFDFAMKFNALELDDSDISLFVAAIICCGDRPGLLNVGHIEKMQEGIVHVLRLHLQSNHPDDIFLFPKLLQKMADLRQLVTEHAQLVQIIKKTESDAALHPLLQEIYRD
Protocol: as §1, §2, §3

Gal4 alone = molecular target: T3, Gal4 alone (Saccharomyces cerevisiae, UniProt P04386); experiment: Luciferase reporter control with vector expressing Gal4 alone (no PPAR ligand binding domain); assay type: cell-based; details: CV-1 cells
T3 construct: expressed in transfected cells; host or cells: CV-1 cells (monkey kidney cells)
Protocol: CV-1 cells (monkey kidney cells) are co-transfected with an expression vector for the chimeric proteins PPARα-Gal4 or PPARγ-Gal4 and with a “reporter” plasmid that allows the expression of the luciferase gene placed under the control of a promoter comprising Gal4 response elements. The cells are plated into 96-well microplates and co-transfected using a commercial reagent with the reporter plasmid (pG5-tk-pGL3) and the expression vector for the chimeric protein (PPARα-Gal4 or PPARγ-Gal4). After incubating for 4 hours, whole culture medium (comprising 10% foetal calf serum) is added to the wells. After 24 hours, the medium is removed and replaced with whole medium comprising the test products (50 μM, 25 μM and 12.5 μM final). The products are left in contact with the cells for 18 hours. The cells are then lysed and the luciferase activity is measured using a luminometer. A PPAR activation factor can then be calculated by means of activation of the expression of the reporter gene induced by the product (relative to the control cells that have not received any product). […] In the absence of the binding domain for the PPAR α or γ ligand (vector expressing Gal4 alone), the luciferase activity measured in the presence of this product is zero.

db/db mice = experiment: Antidiabetic and hypolipidaemiant activity, oral, db/db mice; assay type: in vivo; details: oral 100 mg/kg/day
Protocol: The antidiabetic and hypolipidaemiant activity of the compounds was determined orally on db/db mice
17-week-old db/db mice are treated orally for 15 days with the compound of Example 2 (100 mg/kg/day). Each group studied comprises seven animals. After treatment for 15 days, retro-orbital samples are taken under mild anaesthesia and after fasting for four hours.
The following parameters were measured:
Assay of the glycaemia (glucose oxidase) and of the lipid parameters on the sera at D15 (COBAS): triglycerides, total cholesterol (CHOL), HDL cholesterol (HDL-C) and free fatty acids (FFA) (BioMérieux and Waco Chemicals assay kit).
The measurements reported represent mean values±standard error.

[3] = 15 days, p < 0.05 versus control
[4] = serum at D15, mean ± standard error

T3 sequence (P04386 whole entry, the tested form may be a part): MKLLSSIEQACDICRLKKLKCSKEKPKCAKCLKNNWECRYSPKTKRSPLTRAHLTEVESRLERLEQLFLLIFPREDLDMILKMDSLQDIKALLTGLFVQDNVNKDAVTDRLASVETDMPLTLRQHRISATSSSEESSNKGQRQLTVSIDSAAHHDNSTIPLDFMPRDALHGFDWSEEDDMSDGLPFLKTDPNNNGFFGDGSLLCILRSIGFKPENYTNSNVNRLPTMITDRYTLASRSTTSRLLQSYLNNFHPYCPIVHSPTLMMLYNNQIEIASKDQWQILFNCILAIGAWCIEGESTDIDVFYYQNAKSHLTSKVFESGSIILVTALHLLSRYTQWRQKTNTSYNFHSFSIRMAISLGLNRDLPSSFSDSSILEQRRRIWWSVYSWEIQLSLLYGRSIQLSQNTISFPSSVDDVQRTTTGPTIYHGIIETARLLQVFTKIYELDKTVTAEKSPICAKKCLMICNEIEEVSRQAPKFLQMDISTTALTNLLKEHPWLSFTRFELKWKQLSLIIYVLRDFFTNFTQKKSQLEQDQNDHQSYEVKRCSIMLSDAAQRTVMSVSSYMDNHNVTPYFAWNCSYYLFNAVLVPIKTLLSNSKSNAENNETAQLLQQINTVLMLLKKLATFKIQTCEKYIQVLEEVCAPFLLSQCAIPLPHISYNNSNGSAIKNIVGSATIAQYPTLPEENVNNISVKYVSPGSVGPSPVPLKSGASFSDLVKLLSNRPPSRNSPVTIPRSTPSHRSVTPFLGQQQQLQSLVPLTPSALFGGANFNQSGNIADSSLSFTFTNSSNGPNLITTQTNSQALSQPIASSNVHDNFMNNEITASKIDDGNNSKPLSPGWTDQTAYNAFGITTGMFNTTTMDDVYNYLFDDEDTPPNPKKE

## C=CCCC(Oc1ccc(C(=O)c2ccc(Cl)cc2)cc1)C(=O)O (stereo not shown) [Example 17]
other
  melting point: 141 °C

## C=CCCC(Oc1ccc(C(=O)/C=C/c2ccccc2)cc1)C(=O)O (stereo not shown) [Example 92]
other
  melting point: 125 °C

## O=C(O)C(CCC1=CCCCC1)Oc1ccc(-c2ccc(F)cc2)cc1 (stereo not shown) [Example 19]
other
  melting point: 156 to 158 °C

## C=CCCC(Oc1ccc(-c2cc(C)ccc2C)cc1)C(=O)O (stereo not shown) [Example 90]
other
  melting point: 95 to 98 °C

## O=C(O)C(CCC1=CCCC1)Oc1ccc2oc3ccccc3c2c1 (stereo not shown) [Example 11]
other
  melting point: 140 to 142 °C

## C=CCCC(Oc1cccc(OCc2ccc3ccccc3n2)c1)C(=O)O (stereo not shown) [Example 88]
other
  melting point: 125 °C

## O=C(O)C(CCC1=CCCCC1)Oc1ccc(-c2cc3ccccc3s2)cc1 (stereo not shown) [Example 18]
other
  melting point: 171 to 174 °C

## O=C(O)C(CCC1=CCCCC1)Oc1ccc(Cl)cc1 (stereo not shown) [Example 13]
[1]; 12.5 μM
  PPAR activation factor, Chimer γ: 7.2
[1]; 25 μM
  PPAR activation factor, Chimer γ: 5.3
[1]; 50 μM
  PPAR activation factor, Chimer γ: 8.5
[2]; 12.5 μM
  PPAR activation factor, Chimer α: 6
[2]; 25 μM
  PPAR activation factor, Chimer α: 4.8
[2]; 50 μM
  PPAR activation factor, Chimer α: 12.5

## C=CCCC(Oc1ccc(-c2ccc(OC)cc2)cc1)C(=O)O (stereo not shown) [Example 8]
other
  melting point: 128 to 130 °C

## O=C(O)C(CCC1=CCCCC1)Oc1ccc(C(F)(F)F)cc1 (stereo not shown) [Example 2, 4-cyclohex-1-enyl-2-[4-(trifluoromethyl)phenoxy]butanoic acid]
Gal4 alone
  luciferase activity in the absence of the binding domain for the PPAR α or γ ligand: zero
[1]; 12.5 μM
  PPAR activation factor, Chimer γ: 2.2
[1]; 25 μM
  PPAR activation factor, Chimer γ: 5.2
[1]; 50 μM
  PPAR activation factor, Chimer γ: 9.3
other
  melting point: 109 to 111 °C
[2]; 12.5 μM
  PPAR activation factor, Chimer α: 3.6
[2]; 25 μM
  PPAR activation factor, Chimer α: 17.2
[2]; 50 μM
  PPAR activation factor, Chimer α: 24.9
db/db mice; 15 days, fasted four hours, mean ± standard error
  Glycaemia: 23.23 ± 5.43 mM
db/db mice; 15 days, not significant
  CHOL, % var. (percentage of variation versus control): +28% ns
db/db mice; 15 days, p < 0.01 versus control
  FFA, % var. (percentage of variation versus control): −34% **
db/db mice; [3]
  Glycaemia, % var. (percentage of variation versus control): −26% *
  HDL-C, % var. (percentage of variation versus control): +21% *
  Triglycerides, % var. (percentage of variation versus control): −55% *
db/db mice; [4]
  CHOL (total cholesterol): 6.04 ± 0.61 mM
  FFA (free fatty acids): 0.48 ± 0.12 mM
  HDL-C: 4.26 ± 0.61 mM
  Triglycerides: 1.05 ± 0.29 mM

## C=CCCC(Oc1ccc(-c2ccc(Cl)cc2)cc1)C(=O)O (stereo not shown) [Example 16]
other
  melting point: 127 °C

## C=CCCC(Oc1ccc(-c2csc3ccccc23)cc1)C(=O)O (stereo not shown) [Example 93]
other
  melting point: 98 °C

## C=CCCC(Oc1ccc(C(F)(F)F)cc1)C(=O)O (stereo not shown) [Example 86]
other
  melting point: 70 °C

## C=CCCC(Oc1ccc(-c2cc3ccccc3s2)cc1)C(=O)O (stereo not shown) [Example 94]
other
  melting point: 183 °C

## C=CCCC(Oc1ccc(-c2ccc(OC(F)(F)F)cc2)cc1)C(=O)O (stereo not shown) [Example 95]
other
  melting point: 115 to 116 °C

## O=C(O)C(CCC1=CCCCC1)Oc1ccc2oc3ccccc3c2c1 (stereo not shown) [Example 10]
other
  melting point: 142 to 144 °C

## C=CCCC(Oc1ccc(-c2ccc(F)c(F)c2)cc1)C(=O)O (stereo not shown) [Example 98]
other
  melting point: 70 to 72 °C

## C=CCCC(Oc1ccc(-c2cccc(F)c2)cc1)C(=O)O (stereo not shown) [Example 97]
other
  melting point: 110 °C

## C=CCCC(Oc1ccc(Oc2ccccc2)cc1)C(=O)O (stereo not shown) [Example 87]
other
  melting point: 61 °C

## C=CCCC(Oc1ccc(-c2ccc(F)cc2)cc1)C(=O)O (stereo not shown) [Example 12]
[1]; 12.5 μM
  PPAR activation factor, Chimer γ: 1
[1]; 25 μM
  PPAR activation factor, Chimer γ: 3.4
[1]; 50 μM
  PPAR activation factor, Chimer γ: 15.6
other
  melting point: 97 °C
[2]; 12.5 μM
  PPAR activation factor, Chimer α: 4.3
[2]; 25 μM
  PPAR activation factor, Chimer α: 13.1
[2]; 50 μM
  PPAR activation factor, Chimer α: 19.9

## C=CCCC(Oc1ccc(-c2csc(C)n2)cc1)C(=O)O (stereo not shown) [Example 89]
other
  melting point: 120 °C
